# Assay results reported in ChEMBL document CHEMBL1139046, “3,4-Dihydro-2H-benzoxazinones as dual-acting 5-HT1A receptor antagonists and serotonin reuptake inhibitors” (Bioorg Med Chem Lett, 2007).
# Activity calls are given as the source filed them. The rule behind the calls is not given here.
# Columns and labels:
# [1] = molecular target: T1, 5-hydroxytryptamine receptor 1A (Homo sapiens, UniProt P08908); experiment: Displacement of [3H]WAY-100635 from human cloned 5HT1A receptor expressed in CHO cells; type: cell-based
# T1 sequence (P08908 whole entry): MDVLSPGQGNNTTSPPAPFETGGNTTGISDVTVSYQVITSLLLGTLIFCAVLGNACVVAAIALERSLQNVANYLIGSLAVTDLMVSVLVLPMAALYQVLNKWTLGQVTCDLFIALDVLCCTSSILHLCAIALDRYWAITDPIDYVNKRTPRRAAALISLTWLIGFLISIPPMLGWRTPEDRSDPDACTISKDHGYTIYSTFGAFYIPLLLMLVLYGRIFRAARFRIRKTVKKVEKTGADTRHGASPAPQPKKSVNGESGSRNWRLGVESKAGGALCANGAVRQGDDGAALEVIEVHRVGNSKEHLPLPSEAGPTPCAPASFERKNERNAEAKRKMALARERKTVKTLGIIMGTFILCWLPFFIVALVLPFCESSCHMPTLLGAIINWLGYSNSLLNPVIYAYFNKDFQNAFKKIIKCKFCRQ
# [2] = molecular target: 5-hydroxytryptamine receptor 1B (Homo sapiens, UniProt P28222); experiment: Displacement of [3H]5-HT from human cloned 5HT1B receptor expressed in CHO cells; type: cell-based
# [3] = molecular target: 5-hydroxytryptamine receptor 1D (Homo sapiens, UniProt P28221); experiment: Displacement of [3H]5-HT from human cloned 5HT1D receptor expressed in CHO cells; type: cell-based
# [4] = molecular target: Sodium-dependent serotonin transporter (Rattus norvegicus, UniProt P31652); experiment: Inhibition of [3H]5-HT uptake at SERT in rat cortical synaptosomes; type: subcellular, Brain
# [5] = Blood clearance in rat at 3 mg/kg, po; type: ADME, organism-based; design: dose 3 mg/kg, route oral; settings: whole blood
# [6] = Oral bioavailability in rat at 3 mg/kg, po; type: ADME, organism-based; settings: in vivo
# [7] = Ratio of drug level in brain to blood in rat
# [8] = molecular target: 5-hydroxytryptamine receptor 2A (Homo sapiens, UniProt P28223); experiment: Displacement of [3H]ketanserin from human cloned 5HT2A receptor expressed in HEK293 cells; type: cell-based
# [9] = molecular target: 5-hydroxytryptamine receptor 2B (Homo sapiens, UniProt P41595); experiment: Displacement of [3H]5-HT from human cloned 5HT2B receptor expressed in HEK293 cells; type: cell-based
# [10] = molecular target: T2, 5-hydroxytryptamine receptor 2C (Homo sapiens, UniProt P28335); experiment: Displacement of [3H]mesulergine from human cloned 5HT2C receptor expressed in HEK293 cells; type: cell-based
# T2 sequence (P28335 whole entry): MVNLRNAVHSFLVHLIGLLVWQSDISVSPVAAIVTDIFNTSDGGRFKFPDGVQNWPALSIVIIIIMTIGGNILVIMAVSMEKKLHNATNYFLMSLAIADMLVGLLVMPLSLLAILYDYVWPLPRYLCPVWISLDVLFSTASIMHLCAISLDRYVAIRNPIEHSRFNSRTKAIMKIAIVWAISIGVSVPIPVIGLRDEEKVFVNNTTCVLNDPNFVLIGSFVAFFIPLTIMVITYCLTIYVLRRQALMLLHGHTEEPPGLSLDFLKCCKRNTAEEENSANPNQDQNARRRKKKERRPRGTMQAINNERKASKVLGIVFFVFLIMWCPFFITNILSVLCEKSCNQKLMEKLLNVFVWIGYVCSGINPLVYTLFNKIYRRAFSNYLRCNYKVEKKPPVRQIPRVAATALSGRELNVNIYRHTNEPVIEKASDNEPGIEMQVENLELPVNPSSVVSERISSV
# [11] = molecular target: 5-hydroxytryptamine receptor 6 (Homo sapiens, UniProt P50406); experiment: Displacement of [3H]LSD from human cloned 5HT6 receptor expressed in HeLa cells; type: cell-based
# [12] = molecular target: 5-hydroxytryptamine receptor 7 (Homo sapiens, UniProt P34969); experiment: Displacement of [3H]5CT from human cloned 5HT7a receptor expressed in HEK293 cells; type: cell-based
# [13] = molecular target: D(2) dopamine receptor (Homo sapiens, UniProt P14416); experiment: Displacement of [125I]iodosulpiride from human cloned D2 receptor expressed in CHO cells; type: cell-based
# [14] = molecular target: D(3) dopamine receptor (Homo sapiens, UniProt P35462); experiment: Displacement of [125I]iodosulpiride from human cloned D3 receptor expressed in CHO cells; type: cell-based
# [15] = organism: Homo sapiens; experiment: Selectivity for human 5TH1A over human 5HT1B
# [16] = organism: Homo sapiens; experiment: Selectivity for human 5TH1A over human 5HT1D
# [17] = Selectivity for rat SERT over human 5HT1B
# [18] = Selectivity for rat SERT over human 5HT1D
# [19] = molecular target: T3, 5-hydroxytryptamine receptor 1A (Homo sapiens) (UniProt P08908); experiment: Intrinsic activity at 5HT1A receptor expressed in HEK293 cells relative to 5HT by [35S]GTPgammaS binding assay; type: functional, cell-based
# T3 sequence (whole entry): T1 sequence (P08908 whole entry)
# [20] = molecular target: T4, 5-hydroxytryptamine receptor 1A (Rattus norvegicus, UniProt P19327); experiment: Agonist activity at rat 5HT1A receptor; type: functional
# T4 sequence (P19327 whole entry): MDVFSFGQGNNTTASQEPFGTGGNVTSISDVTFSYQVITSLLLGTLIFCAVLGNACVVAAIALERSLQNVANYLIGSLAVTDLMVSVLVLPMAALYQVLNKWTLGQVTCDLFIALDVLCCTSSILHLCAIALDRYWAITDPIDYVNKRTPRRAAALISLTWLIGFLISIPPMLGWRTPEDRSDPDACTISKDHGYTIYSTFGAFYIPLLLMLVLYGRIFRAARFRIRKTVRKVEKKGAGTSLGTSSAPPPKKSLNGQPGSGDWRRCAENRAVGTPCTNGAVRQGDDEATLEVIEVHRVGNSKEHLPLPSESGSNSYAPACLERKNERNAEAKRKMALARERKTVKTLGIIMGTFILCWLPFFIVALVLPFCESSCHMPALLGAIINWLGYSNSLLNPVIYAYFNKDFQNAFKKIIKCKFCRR
# [21] = Agonist activity at guinea pig 5HT1A receptor; type: functional, Cavia porcellus
# [22] = organism: Rattus norvegicus; experiment: Ex vivo inhibition of [3H]5-HT uptake at SERT in rat cortical synaptosomes; type: functional; settings: Brain
# [23] = tested on: Rattus norvegicus; experiment: Ex vivo displacement of [3H]WAY-100635 from 5HT1A receptor in rat cortex at 1 mg/kg, po; type: functional
# [24] = tested on: Rattus norvegicus; experiment: Ex vivo displacement of [3H]8-OH DPAT from 5HT1A receptor in rat cortex at 1 mg/kg, po; type: functional
# [25] = Agonist activity at marmoset 5HT1A receptor; type: functional, Callithrix jacchus
# [26] = organism: Rattus norvegicus; experiment: Ex vivo displacement of [3H]WAY-100635 from 5HT1A receptor in rat cortex; type: functional, organism-based
# [27] = organism: Rattus norvegicus; experiment: Ex vivo displacement of [3H]8-OH DPAT from 5HT1A receptor in rat cortex; type: functional, organism-based
# [28] = tested on: Rattus norvegicus; experiment: Attenuation of 8-OH DPAT induced locomotor activity in po dosed rat; type: functional
# [29] = molecular target: Alpha-1B adrenergic receptor (Homo sapiens) (UniProt P35368); experiment: Binding affinity at adrenergic alpha 1b receptor
# [30] = tested on: Rattus norvegicus; experiment: Effect on locomotor activity in rat up to 10 mg/kg
# Chain of 5-hydroxytryptamine receptor 2B (P41595 whole entry): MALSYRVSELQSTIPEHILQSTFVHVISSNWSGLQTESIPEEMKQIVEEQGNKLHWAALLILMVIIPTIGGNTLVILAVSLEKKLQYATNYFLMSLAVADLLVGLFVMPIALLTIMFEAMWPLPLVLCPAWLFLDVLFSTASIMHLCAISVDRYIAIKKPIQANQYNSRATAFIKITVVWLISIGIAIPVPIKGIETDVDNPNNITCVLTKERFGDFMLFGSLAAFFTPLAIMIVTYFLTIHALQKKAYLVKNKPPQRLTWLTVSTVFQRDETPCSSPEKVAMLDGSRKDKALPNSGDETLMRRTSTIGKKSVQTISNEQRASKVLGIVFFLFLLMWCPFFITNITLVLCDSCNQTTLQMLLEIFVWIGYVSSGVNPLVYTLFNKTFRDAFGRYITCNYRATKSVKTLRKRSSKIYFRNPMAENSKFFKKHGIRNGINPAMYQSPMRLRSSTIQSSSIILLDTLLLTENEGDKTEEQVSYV
# Chain of 5-hydroxytryptamine receptor 6 (P50406 whole entry): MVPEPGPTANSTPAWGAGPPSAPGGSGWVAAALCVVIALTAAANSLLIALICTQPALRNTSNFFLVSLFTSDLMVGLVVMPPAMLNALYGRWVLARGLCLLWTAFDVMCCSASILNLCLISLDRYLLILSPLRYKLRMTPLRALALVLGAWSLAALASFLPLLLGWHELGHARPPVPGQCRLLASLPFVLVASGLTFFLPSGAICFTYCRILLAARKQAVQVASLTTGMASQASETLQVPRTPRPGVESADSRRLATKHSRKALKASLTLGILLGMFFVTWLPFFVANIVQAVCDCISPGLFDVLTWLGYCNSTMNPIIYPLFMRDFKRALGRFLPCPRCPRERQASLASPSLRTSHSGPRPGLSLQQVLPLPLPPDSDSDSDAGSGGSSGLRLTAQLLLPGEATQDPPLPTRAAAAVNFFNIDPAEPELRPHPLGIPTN
# Chain of D(2) dopamine receptor (P14416 whole entry): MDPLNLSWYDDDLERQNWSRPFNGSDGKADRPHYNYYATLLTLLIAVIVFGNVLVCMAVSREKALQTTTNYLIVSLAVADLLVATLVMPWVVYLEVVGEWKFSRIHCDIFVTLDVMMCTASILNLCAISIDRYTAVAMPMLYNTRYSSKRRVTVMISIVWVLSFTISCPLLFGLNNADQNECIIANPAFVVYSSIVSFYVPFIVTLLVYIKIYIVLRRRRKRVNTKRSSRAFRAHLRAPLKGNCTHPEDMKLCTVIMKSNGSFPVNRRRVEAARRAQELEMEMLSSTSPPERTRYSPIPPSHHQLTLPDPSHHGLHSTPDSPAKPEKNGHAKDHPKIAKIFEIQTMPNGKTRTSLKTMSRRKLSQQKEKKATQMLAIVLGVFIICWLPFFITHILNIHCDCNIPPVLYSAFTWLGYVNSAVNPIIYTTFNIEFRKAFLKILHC
# Chain of D(3) dopamine receptor (P35462 whole entry): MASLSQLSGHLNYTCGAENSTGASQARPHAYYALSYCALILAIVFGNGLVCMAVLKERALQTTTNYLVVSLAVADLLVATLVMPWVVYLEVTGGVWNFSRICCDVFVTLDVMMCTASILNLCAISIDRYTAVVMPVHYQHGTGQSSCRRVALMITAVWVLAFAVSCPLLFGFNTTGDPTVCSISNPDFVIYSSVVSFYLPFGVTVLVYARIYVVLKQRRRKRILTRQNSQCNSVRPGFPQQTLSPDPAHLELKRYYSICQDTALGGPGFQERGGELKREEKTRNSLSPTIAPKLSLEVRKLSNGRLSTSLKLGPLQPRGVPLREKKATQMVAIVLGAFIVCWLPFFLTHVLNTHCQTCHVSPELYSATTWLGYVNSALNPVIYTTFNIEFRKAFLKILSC
# Chain of 5-hydroxytryptamine receptor 1D (P28221 whole entry): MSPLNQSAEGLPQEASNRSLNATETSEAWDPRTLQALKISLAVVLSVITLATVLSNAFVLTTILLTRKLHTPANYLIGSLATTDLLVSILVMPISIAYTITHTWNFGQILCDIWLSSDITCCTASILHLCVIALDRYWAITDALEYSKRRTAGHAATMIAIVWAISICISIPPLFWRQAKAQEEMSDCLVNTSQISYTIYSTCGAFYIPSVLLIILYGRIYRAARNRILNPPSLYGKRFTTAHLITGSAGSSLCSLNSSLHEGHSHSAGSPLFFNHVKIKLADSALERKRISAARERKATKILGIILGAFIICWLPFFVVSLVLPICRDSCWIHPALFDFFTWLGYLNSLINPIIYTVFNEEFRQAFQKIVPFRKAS
# Chain of Sodium-dependent serotonin transporter (P31652 whole entry): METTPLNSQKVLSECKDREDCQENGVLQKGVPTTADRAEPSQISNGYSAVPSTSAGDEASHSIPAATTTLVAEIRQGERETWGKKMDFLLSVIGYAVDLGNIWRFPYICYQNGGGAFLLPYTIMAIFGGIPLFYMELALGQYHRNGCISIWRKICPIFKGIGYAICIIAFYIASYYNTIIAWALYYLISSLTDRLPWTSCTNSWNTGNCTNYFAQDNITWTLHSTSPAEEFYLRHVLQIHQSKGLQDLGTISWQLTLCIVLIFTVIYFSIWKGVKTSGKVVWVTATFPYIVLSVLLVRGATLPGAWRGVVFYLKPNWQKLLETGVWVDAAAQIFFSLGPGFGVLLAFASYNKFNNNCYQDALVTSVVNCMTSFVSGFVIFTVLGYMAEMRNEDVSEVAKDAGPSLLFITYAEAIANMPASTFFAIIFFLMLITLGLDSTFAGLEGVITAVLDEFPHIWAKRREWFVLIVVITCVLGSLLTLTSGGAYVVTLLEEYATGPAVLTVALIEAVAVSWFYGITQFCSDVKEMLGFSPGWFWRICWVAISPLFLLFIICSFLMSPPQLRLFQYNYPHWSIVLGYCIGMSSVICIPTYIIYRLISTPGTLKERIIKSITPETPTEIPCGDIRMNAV
# Chain of 5-hydroxytryptamine receptor 7 (P34969 whole entry): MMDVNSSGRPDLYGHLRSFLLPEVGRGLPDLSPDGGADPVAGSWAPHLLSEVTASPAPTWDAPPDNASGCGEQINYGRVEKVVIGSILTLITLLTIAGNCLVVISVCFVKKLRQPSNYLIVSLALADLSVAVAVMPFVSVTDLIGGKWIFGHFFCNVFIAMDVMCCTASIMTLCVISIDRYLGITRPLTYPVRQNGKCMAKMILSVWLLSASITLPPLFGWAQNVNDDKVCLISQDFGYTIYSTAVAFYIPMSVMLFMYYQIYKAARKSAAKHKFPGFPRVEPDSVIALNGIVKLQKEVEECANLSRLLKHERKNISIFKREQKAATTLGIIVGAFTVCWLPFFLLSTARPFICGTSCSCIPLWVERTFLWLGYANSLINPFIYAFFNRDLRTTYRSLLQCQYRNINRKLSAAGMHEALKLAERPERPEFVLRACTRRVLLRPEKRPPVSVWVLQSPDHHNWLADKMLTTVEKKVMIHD
# Chain of 5-hydroxytryptamine receptor 2A (P28223 whole entry): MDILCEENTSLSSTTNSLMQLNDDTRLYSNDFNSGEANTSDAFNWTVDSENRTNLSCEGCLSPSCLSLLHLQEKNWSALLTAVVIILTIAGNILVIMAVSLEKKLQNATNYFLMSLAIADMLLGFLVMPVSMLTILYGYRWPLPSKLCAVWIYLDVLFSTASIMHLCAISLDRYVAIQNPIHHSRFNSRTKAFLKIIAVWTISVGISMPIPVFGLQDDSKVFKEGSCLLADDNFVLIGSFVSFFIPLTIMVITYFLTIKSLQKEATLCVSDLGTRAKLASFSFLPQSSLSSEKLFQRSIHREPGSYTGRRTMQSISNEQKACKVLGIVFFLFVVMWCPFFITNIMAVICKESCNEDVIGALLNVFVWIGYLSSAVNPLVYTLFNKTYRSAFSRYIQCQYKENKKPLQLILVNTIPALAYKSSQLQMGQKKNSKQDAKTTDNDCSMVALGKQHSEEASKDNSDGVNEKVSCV
# Chain of 5-hydroxytryptamine receptor 1B (P28222 whole entry): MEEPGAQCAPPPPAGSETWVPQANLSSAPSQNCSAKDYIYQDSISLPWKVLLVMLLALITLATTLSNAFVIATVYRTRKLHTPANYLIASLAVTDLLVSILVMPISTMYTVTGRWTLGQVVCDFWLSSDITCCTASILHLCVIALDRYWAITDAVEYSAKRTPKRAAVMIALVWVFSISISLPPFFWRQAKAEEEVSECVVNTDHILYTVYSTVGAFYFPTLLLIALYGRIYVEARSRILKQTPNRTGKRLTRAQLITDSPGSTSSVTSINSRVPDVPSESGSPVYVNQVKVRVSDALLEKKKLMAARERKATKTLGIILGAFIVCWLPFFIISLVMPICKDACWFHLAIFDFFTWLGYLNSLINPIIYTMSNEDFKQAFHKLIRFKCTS
# Chain of Alpha-1B adrenergic receptor (Homo sapiens) (P35368 whole entry, looked up): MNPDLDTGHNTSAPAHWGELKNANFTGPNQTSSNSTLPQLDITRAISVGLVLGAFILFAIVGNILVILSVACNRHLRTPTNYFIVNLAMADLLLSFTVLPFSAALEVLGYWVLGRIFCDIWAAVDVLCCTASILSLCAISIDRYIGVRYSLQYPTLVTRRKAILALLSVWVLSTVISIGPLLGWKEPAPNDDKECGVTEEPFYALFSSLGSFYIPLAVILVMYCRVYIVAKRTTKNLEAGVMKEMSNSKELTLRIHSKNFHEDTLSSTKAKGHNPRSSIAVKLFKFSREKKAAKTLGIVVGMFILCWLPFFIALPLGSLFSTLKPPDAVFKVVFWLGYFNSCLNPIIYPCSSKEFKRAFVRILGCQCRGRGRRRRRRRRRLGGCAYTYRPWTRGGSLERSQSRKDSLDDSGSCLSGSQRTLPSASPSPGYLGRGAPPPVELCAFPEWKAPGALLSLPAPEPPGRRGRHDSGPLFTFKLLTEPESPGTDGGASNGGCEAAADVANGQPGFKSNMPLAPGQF
Structure (SMILES),Ki [1],Ki [2],Ki [3],Ki [4],CL/F [5],bioavailability [6],Kp [7],Ki [8],Ki [9],Ki [10],Ki [11],Ki [12],Ki [13],Ki [14],Ki [29],other results
Cc1ccc2c(OCCN3CCC(Cc4ccc5c(c4F)NC(=O)CO5)CC3)cccc2n1,2.51 nM,2.51 nM,0.794 nM,15.8 nM,41 mL/min/kg,–,4,–,–,–,–,–,–,–,–,–
Cc1ccc2c(OCCN3CCC(Cc4ccc5c(c4F)NC(=O)CO5)CC3)cc(F)cc2n1,1.58 nM,398 nM,100 nM,25.1 nM,27 mL/min/kg,39%,6.4,2000 nM,–,2510 nM,> 10000 nM,126 nM,1260 nM,794 nM,1260 nM,–
Cc1ccc2c(OCCN3CCC(Cc4ccc5c(c4)NC(=O)CO5)CC3)c(F)ccc2n1,50.1 nM,31.6 nM,2.51 nM,10 nM,–,–,–,–,–,–,–,–,–,–,–,–
Cc1ccc2c(OCCN3CCC(Cc4ccc5c(c4)NC(=O)CO5)CC3)ccc(F)c2n1,20 nM,794 nM,79.4 nM,7.94 nM,–,–,–,–,–,–,–,–,–,–,–,–
Cc1ccc2c(OCCN3CCC(Cc4cc5c(cc4F)OCC(=O)N5)CC3)cccc2n1,0.501 nM,20 nM,3.16 nM,7.94 nM,36 mL/min/kg,33%,–,–,–,–,–,–,–,–,–,–
Cc1ccc2c(OCCN3CCC(Cc4ccc5c(c4)NC(=O)CO5)CC3)ccc(Cl)c2n1,39.8 nM,158 nM,63.1 nM,12.6 nM,–,–,–,–,–,–,–,–,–,–,–,–
Cc1ccc2c(OCCN3CCC(Cc4ccc5c(c4)NC(=O)CO5)CC3)cccc2n1,–,–,–,–,50 mL/min/kg,45%,–,3160 nM,1580 nM,> 7940 nM,> 10000 nM,200 nM,1260 nM,631 nM,2510 nM,–

# Now from value to compound, other results behind:
Ki [1],Ki [2],Ki [3],Ki [4],CL/F [5],bioavailability [6],Kp [7],Ki [8],Ki [9],Ki [10],Ki [11],Ki [12],Ki [13],Ki [14],Ki [29],Structure (SMILES),other results
0.794 nM,> 1000 nM,398 nM,15.8 nM,25 mL/min/kg,41%,–,–,–,–,–,–,–,–,–,Cc1ccc2c(OCCN3CCC(Cc4ccc5c(c4)NC(=O)CO5)CC3)cc(F)cc2n1,–
1.58 nM,1260 nM,794 nM,10 nM,25 mL/min/kg,56%,0.2,–,–,–,–,–,–,–,–,Cc1ccc2c(OCCN3CCC(Cc4ccc5c(c4)NC(=O)CO5)CC3)cc(Cl)cc2n1,–
20 nM,1000 nM,251 nM,100 nM,–,–,–,–,–,–,–,–,–,–,–,Cc1ccc2c(OCCN3CCC(Cc4ccc5c(c4)NC(=O)CO5)CC3)cc(C#N)cc2n1,–
0.398 nM,1000 nM,251 nM,7.94 nM,19 mL/min/kg,54%,1.2,2000 nM,1000 nM,1260 nM,> 1000 nM,39.8 nM,2000 nM,501 nM,794 nM,Cc1ccc2c(OCCN3CCC(Cc4cc5c(cc4F)OCC(=O)N5)CC3)cc(F)cc2n1,Selectivity ratio [15]: 100; Selectivity ratio [16]: 100; Selectivity ratio [17]: 100; Selectivity ratio [18]: 100; Intrinsic activity [19]: 0; Ki [20]: > 1 nM; Log Ki [21]: > -9; ED50 [22]: 3 mg/kg; inhibition in vivo at 1 mg/kg [23]: 50%; inhibition in vivo at 1 mg/kg [24]: 50%; Log Ki [25]: > -9; Activity [26]: Dose-dependent effect; Activity [27]: Dose-dependent effect; ED50 [28]: < 1 mg/kg
3.98 nM,316 nM,79.4 nM,63.1 nM,25 mL/min/kg,88%,0.4,> 10000 nM,> 7940 nM,> 10000 nM,> 6310 nM,79.4 nM,> 10000 nM,3980 nM,–,Cc1ccc2c(OCCN3CCC(Cc4cc(F)c5c(c4)NC(=O)CO5)CC3)cc(F)cc2n1,Log Ki [29]: > -6
10 nM,631 nM,631 nM,63.1 nM,16 mL/min/kg,51%,–,3160 nM,3160 nM,2510 nM,> 10000 nM,79.4 nM,2510 nM,1260 nM,1580 nM,Cc1ccc2c(OCCN3CCC(Cc4cc(F)c5c(c4)NC(=O)CO5)CC3)cc(Cl)cc2n1,–
5.01 nM,0.794 nM,0.398 nM,6.31 nM,22 mL/min/kg,–,–,–,–,–,–,–,–,–,–,Cc1ccc2c(OCCN3CCC(Cc4cc(F)c5c(c4)NC(=O)CO5)CC3)cccc2n1,–
2.51 nM,2000 nM,794 nM,15.8 nM,18 mL/min/kg,60%,–,> 10000 nM,–,> 5010 nM,7940 nM,39.8 nM,3160 nM,2000 nM,2510 nM,Cc1ccc2c(OCCN3CCC(Cc4cc5c(cc4F)OCC(=O)N5)CC3)cc(Cl)cc2n1,Log Ki ([9]; hek293): > -6; Selectivity ratio [15]: 100; Selectivity ratio [16]: 100; Selectivity ratio [17]: 100; Selectivity ratio [18]: 100; Intrinsic activity [19]: 0; Ki [20]: > 1 nM; Log Ki [21]: > -9; ED50 [22]: 3 mg/kg; inhibition in vivo at 1 mg/kg [23]: 50%; inhibition in vivo at 1 mg/kg [24]: 50%; Log Ki [25]: > -9; Activity [26]: Dose-dependent effect; Activity [27]: Dose-dependent effect; ED50 [28]: 3 mg/kg; Activity [30]: inactive
2.51 nM,1580 nM,631 nM,63.1 nM,28 mL/min/kg,43%,–,3980 nM,1580 nM,3980 nM,> 10000 nM,126 nM,1260 nM,1000 nM,398 nM,Cc1ccc2c(OCCN3CCC(Cc4ccc5c(c4F)NC(=O)CO5)CC3)cc(Cl)cc2n1,–
